Experiments:
[1] = tested on: HL-60 (ATCC CCL-240) cells; assay: Apoptosis morphology in HL-60 cells under optical microscope; assay type: cell-based, Human; conditions: 24 hours
Method: (§1) HL-60 (ATCC CCL-240) cells were cultured at 37° C. in RPMI 1640 medium (Bio Whittaker) containing 10% fetal calf serum (JRH) which had been treated at 56° C. for 30 minutes and suspended in RPMI 1640 medium at a concentration of 2.5×10^5 cells/4.5 ml. […] each of aqueous solutions of the compound (2) at a concentration of 10, 50 or 100 mM, the compound (7) at a concentration of 500, 1000 or 1500 μM, the compound (9) at a concentration of 750, 1500 or 3000 μM, the compound (11) at a concentration of 750, 1500 or 3000 μM, or the compound (14) at a concentration of 750, 1500 or 3000 μM was added to 4.5 ml of the suspension. The mixtures were incubated at 37° C. for 24 hours in the presence of 5% CO2. The cultured cells were examined under an optical microscope.

[2] = tested on: HL-60 (ATCC CCL-240) cells; assay: Measurement of apoptotic cells using FACScan; assay type: cell-based, Human; conditions: HL-60 cells, cultured for 24 or 48 hours
Method: as §1, with “CO2. Measurement of apoptotic cells using FACScan as described in Saibo Kogaku, Bessatsu (Cell Technology, Suppl.) Jikken Protocol Series: Apoptosis Jikken Protocol (Experimental Protocol Series: Experimental Protocols for Apoptosis) (Shujun-sha) pp. 129-130 and analysis of DNA fragmentation as described in Bio Manual UP Series: […] Apoptosis Jikken-ho (Bio Manual UP Series: Current Experimental Methods for Apoptosis) (Yodo-sha) pp. 61-63 were carried out using cells” for “CO2. The”, “cultured for 24 or 48 hours in the same manner as that described above.” for “cultured cells were examined under an optical microscope.”

[3] = tested on: NO production in celiac macrophages; assay: NO production of celiac macrophages from orally dosed mice; assay type: in vivo; conditions: 1% suspension in olive oil, forced oral administration once a day, 12 times in 15 days, 10 or 30 ml/kg, ddY mice
Method: The compound (7) in Example 1 was suspended in olive oil (Nacalai Tesque) at a concentration of 1% to prepare a 1% suspension of the compound (7). The 1% suspension of the compound (7) prepared as described above was administered to ddY mice (Japan SLC, female, 7 weeks old) by forced oral administration once a day, 12 times in 15 days, at a dosage of 10 or 30 ml/kg. Tap water was similarly administered by forced oral administration as a control. Each group consisted of 3 mice. Thereafter, 4 ml of RPMI 1640 medium (Bio Whittaker, Code. 12-702F) containing 10% fetal calf serum was intraperitoneally injected. Media removed from 3 mice after extensive massage were combined to obtain celiac cells. The celiac cells were suspended in RPMI 1640 medium containing 10% fetal calf serum at a concentration of 10^6 cells/ml. 500 μl of the suspension was added to each well of a 48-well microtiter plate and the plate was incubated at 37° C. for 2 hours in the presence of 5% CO2. Adhesive cells obtained by removing the culture supernatant were used as celiac macrophages. 500 μl of fresh Dulbecco's modified Eagle's medium (Bio Whittaker, Code. 12-917F) without Phenol Red containing 10% fetal calf serum and 2 mM L-glutamine was added to each well. […] The concentration of NO2^− resulting from oxidation of NO in the medium was then measured as described in Example 6. […]

O=C[C@H](O)[C@H]1OC[C@@H](O)[C@@H]1OC(=O)c1ccccc1 [Compound (7), 4-O-benzoyl-3,6-anhydro-D-galactose]
final concentration at which condensation of nuclei, shrinking of cells and formation of apoptotic bodies were observed [1]: ≥ 100 µM
final concentration at which apoptotic cells were observed [2]: ≥ 100 µM
activity of inhibiting NO production in celiac macrophages (LPS and IFN-γ) [3]: remarkable activity of inhibiting NO production
